Measured values taken from PMC5259778, “Candidate pheromone receptors of codling moth Cydia pomonella respond to pheromones and kairomones” (Scientific Reports, 2017).

Biological target: CpomOrco + OR6a (Cydia pomonella, UniProt H9A5M1)
Assay: Calcium imaging of HEK293T cells expressing CpomOrco + OR6a
Assay type: cell-based
Description: HEK293T cells were grown in HEK cell media [Dulbecco’s modified Eagle’s medium containing 10% fetal bovine serum (MP Biomedicals, Solon, OH, USA), 2.0 mM L-glutamine, and 100 μg/mL Penicillin/Streptomycin (Invitrogen)] at 37 °C and 5% CO2. To test transient expression of CpomORs for calcium imaging or patch-clamp recording experiments, 35-mm petri dishes containing semi-confluent HEK293T cells were transiently transfected. To transfect cells with CpomOrco, we used 1.0 μg of pcDNA5/TO/CpomOrco DNA. In order to promote expression of the OR[51], we used double aliquots for pcDNA5/TO/CpomOR DNAs (2.0 μg), combined with 1.0 μg of pcDNA5/TO/CpomOrco for co-transfections (CpomOrco + ORs). To report expression for calcium imaging experiments, 1.0 μg of a separate plasmid DNA [pEBFP2-Nuc, a gift from Robert Campbell (Addgene plasmid # 14893[52])] carrying the coding sequence for a blue fluorescent protein (BFP) was used. In patch-clamp recordings, 1.0 μg of a separate plasmid DNA (pXOOM, Clontech) carrying the coding sequence for a green fluorescent protein (GFP) was used to report expression. In order to report candidate OR-expressing cells, expression of both fluorescent reporter genes was under the regulation of the same promoter for CpomOR genes (CMV). Transfection DNAs were dissolved in 100 μL sterile DMEM, mixed with 3.0 μL Calfectin (SignaGen, Rockville, MD, USA) following the recommended protocol. To estimate transfection efficiency, a parallel transfection was conducted using the positive control vector pcDNA5/TO/LACZ (Invitrogen) and staining with 0.1% XGal[53].
Transfections were conducted overnight. HEK cell media was replaced with 1.0 mL fresh media to incubate cells at 37 °C for up to 6 h, at which point part of the cell culture was spread in the middle of a 35-mm plate as individual cells or small clusters. After 12 h of incubation at 37 °C and 5% CO2, cells were rinsed at the sides with 2.0 mL fresh HEK media. Cells were allowed to recover for at least 1 h prior to calcium imaging.
To test activation of olfactory receptors, CpomOrco or CpomOrco + ORs HEK293T cells were incubated for 1 h at room temperature in 0.5–1.0 mL HEK cell Ringer (mM: 140 NaCl, 5.0 KCl, 1.0 CaCl2, 1.0 MgCl2, 10 HEPES, 10 Glucose, pH 7.5) containing the fluorescent calcium indicator Fluo-4AM (Invitrogen) at 5–15 μM prepared with 0.2–0.06% Pluronic F-127 (Invitrogen). After incubation, the buffer was removed and cells were rinsed with 4.0 mL fresh HEK Ca^++ Ringer (mM: 140 NaCl, 2.0 CaCl2, 10 HEPES, pH 7.5), and placed on the stage of an inverted microscope (Olympus IX-71, Olympus Corp., Tokyo, Japan) equipped with a cooled CCD camera (ORCA R2, Hamamatsu, Hamamatsu City, Japan). Cells were continuously superfused with Ca^++ Ringer using two gravity fed perfusion contours. The […] contour washing the cells (~250 μL/min) was switched rapidly to the stimulus contour using a multi-channel rapid solution changer (RSC-160, Bio-Logic, Claix, France) under the software control of Clampex 9 (Molecular Devices, Sunnyvale, CA, USA).
Fluorescence imaging was performed using Imaging Workbench 6 software (INDEC BioSystems, Santa Clara, CA, USA). Each cell was assigned a region of interest (ROI) and changes in fluorescence intensity within each ROI were measured and expressed as the fractional change in fluorescence intensity (dF) or in some cases as dF/F0 where F0 is the basal fluorescence level before agonist application. […] Continuous traces of multiple responses were compensated for slow drift of the baseline fluorescence when necessary. All recordings were performed at room temperature (22–25 °C).
HEK293T cells expressing CpomOrco + OR6a, CpomOrco + OR3 and CpomOrco + OR1 were stimulated with an array of compounds such as: potential insect pheromone compounds and plant volatile synergists active on the olfactory system and behaviour of the codling moth[1][25], non-host plant volatiles active on other tortricids, the methyl pear-ester[33] […]

Sequence of CpomOrco + OR6a (H9A5M1 entry or part of it): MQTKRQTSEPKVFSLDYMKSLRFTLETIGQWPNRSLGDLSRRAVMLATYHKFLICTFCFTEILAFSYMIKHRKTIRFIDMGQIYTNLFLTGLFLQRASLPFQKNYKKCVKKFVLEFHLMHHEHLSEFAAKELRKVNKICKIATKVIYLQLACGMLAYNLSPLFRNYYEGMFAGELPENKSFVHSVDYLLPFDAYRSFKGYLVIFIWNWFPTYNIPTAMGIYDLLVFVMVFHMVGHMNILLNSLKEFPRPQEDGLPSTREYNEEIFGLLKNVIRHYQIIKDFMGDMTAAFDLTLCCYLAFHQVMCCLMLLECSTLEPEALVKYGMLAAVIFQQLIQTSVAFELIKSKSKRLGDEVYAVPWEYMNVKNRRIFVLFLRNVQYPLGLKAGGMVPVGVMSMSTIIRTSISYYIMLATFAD
Sequence of CpomOrco + OR6a (H9A5M2 entry or part of it, further chain): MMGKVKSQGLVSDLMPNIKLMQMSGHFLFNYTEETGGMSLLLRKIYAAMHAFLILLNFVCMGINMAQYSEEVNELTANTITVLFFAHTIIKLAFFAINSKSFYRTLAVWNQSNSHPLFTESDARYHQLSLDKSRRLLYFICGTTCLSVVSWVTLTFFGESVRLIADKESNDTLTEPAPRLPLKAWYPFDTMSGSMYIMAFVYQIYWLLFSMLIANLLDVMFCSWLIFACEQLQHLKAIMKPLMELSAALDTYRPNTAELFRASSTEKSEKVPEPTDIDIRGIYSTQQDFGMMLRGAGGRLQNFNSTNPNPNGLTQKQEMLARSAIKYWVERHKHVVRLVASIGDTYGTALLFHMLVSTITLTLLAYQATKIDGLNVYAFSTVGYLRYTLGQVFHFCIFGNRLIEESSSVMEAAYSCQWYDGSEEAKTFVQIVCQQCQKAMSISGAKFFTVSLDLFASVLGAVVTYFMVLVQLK

SMILES	amplitude of the calcium response (mean of the maximum response ± SEM) (50 μM, n = 70)	amplitude of the calcium response (mean of the maximum response ± SEM) (1500 μM, n = 68)	Emax (HEK-293T, vs 250 μM VUAA3, read-out: amplitude at saturating concentrations relative to the positive control amplitude)	EC50 (calcium response normalized to 250 μM VUAA3)	amplitude of the calcium response (mean of the maximum response ± SEM) (100 μM, n = 70)	amplitude of the calcium response (mean of the maximum response ± SEM) (250 μM positive control, n = 68)
C/C=C/C=C/CCCCCCCOC(C)=O [codlemone acetate, (E,E)-8,10-dodecadien-1-yl acetate]	12.04 ± 8.17 dF	18.91 ± 10.31 dF	~27%	51.8 ± 13.2 µM		
CCn1c(SCC(=O)Nc2ccc(C(C)C)cc2)nnc1-c1ccncc1 [VUAA3, acetamide,2-[[4-ethyl-5-(4-pyridinyl)-4H-1,2,4-triazol-3-yl]thio]-N-[4-(1-methylethyl)phenyl]-]					37.96 ± 20.98 dF	69.71 ± 27.29 dF
C/C=C/C=C/CCCCCCCO [codlemone, (E,E)-8,10-dodecadien-1-ol]	0.38 ± 1.84 dF	5.7 ± 3.64 dF				
